Source: the supplement of paper PMC10307832

What was measured:
Assay in all cases: relative viability (nuclei count vs DMSO), 5 days (fraction); higher = more cells survive
HOP-62 = test system: HOP-62
In short: (§1)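 Cells from lung cancer lines were seeded into 1536-well plates and, one day later, dosed by pin tool. Treatments were either a single drug or a fixed dose of an anchor drug with five library-drug doses (not always all listed) in √10 steps. After 5 days, nuclei were stained in a one-step fixation (final 0.05% Triton X-100, 1% formaldehyde, 1 ug/ml Hoechst) and counted on 4× images, and relative viability is the treated-to-vehicle nuclei ratio, as the median of duplicate plates.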

COR-L 105 = test system: COR-L 105
In short: as §1

LXF-289 = test system: LXF-289
In short: as §1

LCLC-97TM1 = test system: LCLC-97TM1
In short: as §1

NCI-H1944 = test system: NCI-H1944
In short: as §1

NCI-H2085 = test system: NCI-H2085
In short: as §1

NCI-H1793 = test system: NCI-H1793
In short: as §1

UMC-11 = test system: UMC-11
In short: as §1

LC-2-ad = test system: LC-2-ad
In short: as §1

NCI-H1915 = test system: NCI-H1915
In short: as §1

NCI-H1755 = test system: NCI-H1755
In short: as §1

Q: What does the source list for `NC(=O)Nc1cc(-c2cccc(F)c2)sc1C(=O)N[C@H]1CCCNC1` [AZD7762] + CS(=O)(=O)N1CCN(Cc2cc3nc(-c4cccc5[nH]ncc45)nc(N4CCOCC4)c3s2)CC1 [Pictilisib] (partner 1 µM)?
A: relative viability (HOP-62; first compound 0.01 µM): 0.501; relative viability (HOP-62; first compound 0.03162 µM): 0.801; relative viability (HOP-62; first compound 0.1 µM): 0.833; relative viability (HOP-62; first compound 0.3162 µM): 0.645; relative viability (HOP-62; first compound 1 µM): 0.268; relative viability (COR-L 105; first compound 0.01 µM): 0.486; relative viability (COR-L 105; first compound 0.03162 µM): 0.365; relative viability (COR-L 105; first compound 0.1 µM): 0.31; relative viability (COR-L 105; first compound 0.3162 µM): 0.353; relative viability (COR-L 105; first compound 1 µM): 0.242; relative viability (LXF-289; first compound 0.01 µM): 0.754; relative viability (LXF-289; first compound 0.03162 µM): 0.875; relative viability (LXF-289; first compound 0.1 µM): 0.809; relative viability (LXF-289; first compound 0.3162 µM): 0.855; relative viability (LXF-289; first compound 1 µM): 0.813; relative viability (LCLC-97TM1; first compound 0.01 µM): 0.201; relative viability (LCLC-97TM1; first compound 0.03162 µM): 0.201; relative viability (LCLC-97TM1; first compound 0.1 µM): 0.277; relative viability (LCLC-97TM1; first compound 0.3162 µM): 0.216; relative viability (LCLC-97TM1; first compound 1 µM): 0.152; relative viability (NCI-H1944; first compound 0.01 µM): 0.333; relative viability (NCI-H1944; first compound 0.03162 µM): 0.395; relative viability (NCI-H1944; first compound 0.1 µM): 0.4; relative viability (NCI-H1944; first compound 0.3162 µM): 0.363; relative viability (NCI-H1944; first compound 1 µM): 0.389; relative viability (NCI-H2085; first compound 0.01 µM): 0.407; relative viability (NCI-H2085; first compound 0.03162 µM): 0.507; relative viability (NCI-H2085; first compound 0.1 µM): 0.486; relative viability (NCI-H2085; first compound 0.3162 µM): 0.516; relative viability (NCI-H2085; first compound 1 µM): 0.361; relative viability (NCI-H1793; first compound 0.01 µM): 0.388; relative viability (NCI-H1793; first compound 0.03162 µM): 0.371; relative viability (NCI-H1793; first compound 0.1 µM): 0.336; relative viability (NCI-H1793; first compound 0.3162 µM): 0.278; relative viability (NCI-H1793; first compound 1 µM): 0.224; relative viability (UMC-11; first compound 0.01 µM): 0.753; relative viability (UMC-11; first compound 0.03162 µM): 0.768; relative viability (UMC-11; first compound 0.1 µM): 0.848; relative viability (UMC-11; first compound 0.3162 µM): 0.679; relative viability (UMC-11; first compound 1 µM): 0.393; relative viability (LC-2-ad; first compound 0.01 µM): 0.438; relative viability (LC-2-ad; first compound 0.03162 µM): 0.39; relative viability (LC-2-ad; first compound 0.1 µM): 0.321; relative viability (LC-2-ad; first compound 0.3162 µM): 0.308; relative viability (LC-2-ad; first compound 1 µM): 0.196; relative viability (NCI-H1915; first compound 0.01 µM): 0.931; relative viability (NCI-H1915; first compound 0.03162 µM): 0.96; relative viability (NCI-H1915; first compound 0.1 µM): 1.02; relative viability (NCI-H1915; first compound 0.3162 µM): 0.918; relative viability (NCI-H1915; first compound 1 µM): 0.924; relative viability (NCI-H1755; first compound 0.01 µM): 0.471; relative viability (NCI-H1755; first compound 0.03162 µM): 0.469; relative viability (NCI-H1755; first compound 0.1 µM): 0.406; relative viability (NCI-H1755; first compound 0.3162 µM): 0.397; relative viability (NCI-H1755; first compound 1 µM): 0.241
